According to ChEMBL document CHEMBL5214948, “Boronic Acid: A Novel Pharmacophore Targeting Src Homology 2 (SH2) Domain of STAT3” (J Med Chem, 2022):
Active and inactive are the calls of the source. The rule behind the calls is not given here.

Key:
MGC-803 [1] = assay: Inhibition of cell migration in human MGC-803 cells assessed as cell migration incubated for 24 hrs by microscopy based by scratch wound healing assay; format: functional; conditions: dose 1-3 µM, DDE = dose-dependent effect
AGS [2] = assay: Inhibition of cell migration in human AGS cells assessed as cell migration incubated for 24 hrs by microscopy based by scratch wound healing assay; format: functional; conditions: dose 1-3 µM, DDE = dose-dependent effect
AGS [3] = assay: Inhibition of cell invasion in human AGS cells measured after 24 hrs by crystal violet staining based imaging transwell assay; format: functional; conditions: dose 1-3 µM, DDE = dose-dependent effect
MGC-803 [4] = assay: Inhibition of cell invasion in human MGC-803 cells measured after 24 hrs by crystal violet staining based imaging transwell assay; format: functional; conditions: DDE = dose-dependent effect
MGC-803 [5] = assay: Antitumor activity against human MGC-803 cells xenografted in ip dosed BALB/c nude mouse assessed as supression of tumor growth measured every day for 20 days; format: functional, organism-based; conditions: dose 5-15 mg/kg, time 20.0 day, DDE = dose-dependent effect
MGC-803 [6] = assay: Antitumor activity against human MGC-803 cells xenografted in BALB/c nude mouse assessed as tumor growth inhibition at 5 mg/kg, ip measured every day for 20 days; format: functional; design: scale not given: the % may be the effect or the level left; conditions: time 20 day
MGC-803 [7] = assay: Antitumor activity against human MGC-803 cells xenografted in BALB/c nude mouse assessed as tumor growth inhibition at 15 mg/kg, ip measured every day for 20 days; format: functional; design: scale not given: the % may be the effect or the level left; conditions: time 20 day
[8] = Toxicity in BALB/c nude mouse xenografted with MGC-803 cells assessed as effect on body weight at 15 mg/kg, ip measured every day for 20 days; format: organism-based; conditions: in vivo, 480 h, time 20 day
[9] = Toxicity in BALB/c nude mouse xenografted with MGC-803 cells assessed as effect on body weight at 5 mg/kg, ip measured every day for 20 days; format: organism-based; conditions: in vivo, 480 h, time 20 day
MGC-803 [10] = assay: Antitumor activity against human MGC-803 cells xenografted in BALB/c nude mouse assessed as reduction in phosphorylated STAT3 at Y705 residue at 15 mg/kg, ip measured every day for 20 days by immunohistochemical analysis; format: functional, organism-based; conditions: time 20.0 day
MGC-803 [11] = assay: Antitumor activity against human MGC-803 cells xenografted in BALB/c nude mouse assessed as reduction in phosphorylated STAT3 at Y705 residue at 5 mg/kg, ip measured every day for 20 days by immunohistochemical analysis; format: functional, organism-based; conditions: time 20.0 day
MGC-803 [12] = assay: Antitumor activity against human MGC-803 cells xenografted in BALB/c nude mouse assessed as reduction in Ki67 expression at 15 mg/kg, ip measured every day for 20 days by immunohistochemical analysis; format: functional, organism-based; conditions: time 20.0 day
MGC-803 [13] = assay: Antitumor activity against human MGC-803 cells xenografted in BALB/c nude mouse assessed as reduction in Ki67 expression at 5 mg/kg, ip measured every day for 20 days by immunohistochemical analysis; format: functional, organism-based; conditions: time 20.0 day
MGC-803 [14] = assay: Antitumor activity against human MGC-803 cells xenografted in BALB/c nude mouse assessed as reduction in tumor progression at 5 mg/kg, ip measured every day for 20 days by immunohistochemical analysis; format: functional, organism-based; conditions: time 20.0 day
MGC-803 [15] = assay: Antitumor activity against human MGC-803 cells xenografted in BALB/c nude mouse assessed as reduction in tumor progression at 15 mg/kg, ip measured every day for 20 days by immunohistochemical analysis; format: functional, organism-based; conditions: time 20.0 day
MGC-803 [16] = assay: Antitumor activity against human MGC-803 cells xenografted in BALB/c nude mouse assessed as reduction in tumor cells at 5 mg/kg, ip measured every day for 20 days by immunohistochemical analysis; format: functional, organism-based; conditions: time 20.0 day
MGC-803 [17] = assay: Antitumor activity against human MGC-803 cells xenografted in BALB/c nude mouse assessed as reduction in tumor cells at 15 mg/kg, ip measured every day for 20 days by immunohistochemical analysis; format: functional, organism-based; conditions: time 20.0 day
MGC-803 [18] = assay: Antitumor activity against human MGC-803 cells xenografted in BALB/c nude mouse assessed as reduction in c-myc expression at 15 mg/kg, ip measured every day for 20 days by immunohistochemical analysis; format: functional, organism-based; conditions: time 20.0 day
MGC-803 [19] = assay: Antitumor activity against human MGC-803 cells xenografted in BALB/c nude mouse assessed as reduction in c-myc expression at 5 mg/kg, ip measured every day for 20 days by immunohistochemical analysis; format: functional, organism-based; conditions: time 20.0 day
MGC-803 [20] = assay: Antitumor activity against human MGC-803 cells xenografted in BALB/c nude mouse assessed as reduction in Bcl-xL expression at 15 mg/kg, ip measured every day for 20 days by immunohistochemical analysis; format: functional, organism-based; conditions: time 20.0 day
MGC-803 [21] = assay: Antitumor activity against human MGC-803 cells xenografted in BALB/c nude mouse assessed as reduction in Bcl-xL expression at 5 mg/kg, ip measured every day for 20 days by immunohistochemical analysis; format: functional, organism-based; conditions: time 20.0 day
[22] = Toxicity in nude BALB/c nude mouse xenografted with human MGC-803 cells assessed as morphological changes in heart at 5 to 15 mg/kg, ip measured every day for 20 days by H and E staining based assay; format: organism-based; conditions: in vivo, 480 h, time 20 day
[23] = Toxicity in nude BALB/c nude mouse xenografted with human MGC-803 cells assessed as morphological changes in liver at 5 to 15 mg/kg, ip measured every day for 20 days by H and E staining based assay; format: organism-based; conditions: in vivo, 480 h, time 20 day
[24] = Toxicity in nude BALB/c nude mouse xenografted with human MGC-803 cells assessed as morphological changes in lung at 5 to 15 mg/kg, ip measured every day for 20 days by H and E staining based assay; format: organism-based; conditions: in vivo, 480 h, time 20 day
[25] = Toxicity in nude BALB/c nude mouse xenografted with human MGC-803 cells assessed as morphological changes in kidney at 5 to 15 mg/kg, ip measured every day for 20 days by H and E staining based assay; format: organism-based; conditions: in vivo, 480 h, time 20 day
[26] = Toxicity in nude BALB/c nude mouse xenografted with human MGC-803 cells assessed as morphological changes in spleen at 5 to 15 mg/kg, ip measured every day for 20 days by H and E staining based assay; format: organism-based; conditions: in vivo, 480 h, time 20 day
[27] = biological target: Signal transducer and activator of transcription 3 (Homo sapiens, UniProt P40763); assay: Inhibition of STAT3 at Y705 residue phosphorylation at in human MGC-803 cells at 5 uM pretreated for 48 hrs followed by compound washout and measured after 72 hrs by immunoblotting analysis
Sequence of Signal transducer and activator of transcription 3 (P40763 whole entry, looked up): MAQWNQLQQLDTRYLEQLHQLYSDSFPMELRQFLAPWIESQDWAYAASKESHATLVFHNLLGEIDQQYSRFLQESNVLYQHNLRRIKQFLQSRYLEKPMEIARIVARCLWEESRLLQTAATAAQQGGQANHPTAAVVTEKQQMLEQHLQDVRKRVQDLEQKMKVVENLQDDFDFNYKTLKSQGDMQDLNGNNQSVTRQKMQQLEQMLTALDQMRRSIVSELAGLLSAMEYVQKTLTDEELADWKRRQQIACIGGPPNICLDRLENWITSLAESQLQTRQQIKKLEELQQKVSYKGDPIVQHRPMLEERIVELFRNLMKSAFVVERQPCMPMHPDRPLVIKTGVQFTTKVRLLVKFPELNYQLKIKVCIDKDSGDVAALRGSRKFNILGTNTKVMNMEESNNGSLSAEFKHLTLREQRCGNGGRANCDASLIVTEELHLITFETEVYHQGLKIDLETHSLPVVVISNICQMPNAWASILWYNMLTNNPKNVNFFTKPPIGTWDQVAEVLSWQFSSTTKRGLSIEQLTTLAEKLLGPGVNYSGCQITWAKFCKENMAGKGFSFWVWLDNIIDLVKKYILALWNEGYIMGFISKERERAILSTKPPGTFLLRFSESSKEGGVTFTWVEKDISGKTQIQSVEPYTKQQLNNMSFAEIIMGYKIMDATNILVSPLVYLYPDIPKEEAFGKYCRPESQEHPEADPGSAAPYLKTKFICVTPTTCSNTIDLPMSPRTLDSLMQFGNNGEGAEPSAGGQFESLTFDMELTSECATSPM

With `CN(CC(=O)N(Cc1ccc(C2CCCCC2)cc1)c1ccc(B(O)O)cc1)S(=O)(=O)c1c(F)c(F)c(F)c(F)c1F` the inhibition (MGC-803 [1]) was “Dde”, the inhibition (AGS [2]) was “Dde” and the inhibition (AGS [3]) was “Dde”. The inhibition (MGC-803 [4]) was “Dde”, the Activity (MGC-803 [5]) was “Dde” and the Activity (MGC-803 [6]) was 65.14%. For the same compound, the Activity (MGC-803 [7]) was 79.13%, the Activity [8] was “Non-Toxic” and the Activity [9] was “Non-Toxic”. The Activity (MGC-803 [10]) was “Active”, the Activity (MGC-803 [11]) was “Active” and the Activity (MGC-803 [12]) was “Active”. The Activity (MGC-803 [13]) was “Active”, the Activity (MGC-803 [14]) was “Active” and the Activity (MGC-803 [15]) was “Active”. For the same compound, the Activity (MGC-803 [16]) was “Active”, the Activity (MGC-803 [17]) was “Active” and the Activity (MGC-803 [18]) was “Active”. For the same compound, the Activity (MGC-803 [19]) was “Active”, the Activity (MGC-803 [20]) was “Active” and the Activity (MGC-803 [21]) was “Active”. The Activity [22] was “Non-Toxic”, the Activity [23] was “Non-Toxic” and the Activity [24] was “Non-Toxic”. The Activity [25] was “Non-Toxic”, the Activity [26] was “Non-Toxic” and the inhibition [27] was “Active”.
